{
  "source": "patent US20110098554A1",
  "about": "“Monitoring of convection enhanced drug delivery” (priority 2004, published 2011)",
  "key": {"malignant gliomas": {"system": "malignant gliomas", "settings": "first 24-48 hours post intratumoral CED, patients with recurrent malignant brain tumors; cited from earlier work"}, "[1]": {"system": "striatum of normal Sprague-Dawley (SD) rats", "assay": "Cytotoxic tissue response to CED by T2-weighted and diffusion-weighted MRI and histology", "protocol": "The resultant solution was infused into the striatum of normal Sprague-Dawley (SD) rats (males, 250-300 grams). T1-weighted MR images were acquired immediately post treatment to assess the extent of convection. Additionally, T2-weighted and diffusion-weighted MR images were acquired 24 hours post treatment to assess the response of the tissue and its correlation to the extent of convection.\nUnder full anesthesia, a midline scalp incision was made to identify the bregma. A 1 mm burr hole was made in the right region of the skull, 3 mm anterior and 2 mm lateral to the bregma. A 33-gauge needle attached to a 1000 μl syringe (Gastight; Hamilton) was placed stereotactically 5.5 mm deep into the striatum. The infusion was performed using a BASI syringe pump at a rate of 1 μl/min for a duration ranging from […].\nIn order to obtain a wide range in volumes of distribution, the infusion times were varied between 17 to 60 minutes. 13 rats were treated with Carboplatin (4 mg/ml, 17 minutes infusion). […]\nThe volume (in cm^3) of the composition distribution was calculated from the T1-weighted MR images acquired immediately post CED treatment. […] The number of pixels in the ROIs was counted and multiplying by the volume of a single pixel. […]"}, "C26 colon cancer tumors": {"system": "C26 colon cancer tumors", "assay": "CED of high viscosity toxic infusates in C26 tumors in mice thigh, MRI", "assay_type": "in vivo, balb-c mice", "protocol": "Five balb-c mice, bearing large (over 2 cm in diameter) C26 colon cancer tumors in the thigh, were treated with CED of high viscosity toxic infusates. […] Two mice were treated with a high concentration combination of Ethanol and Cremaphore (150 μl Ethanol and 150 μl Cremaphore diluted with Saline to 1 ml) at infusion rate of 4 μl/min for 105 minutes.\nInfusates were mixed with Gd (1:70) prior to treatment. MR images were acquired immediately post treatment to assess the distribution of the drug within the tumor."}},
  "data": [
    {"smiles": "CC(=O)O[C@H]1C(=O)[C@@]2(C)[C@H]([C@H](OC(=O)c3ccccc3)[C@]3(O)C[C@H](OC(=O)[C@H](O)[C@@H](NC(=O)c4ccccc4)c4ccccc4)C(C)=C1C3(C)C)[C@]1(OC(C)=O)CO[C@@H]1C[C@@H]2O", "note": "[Taxol®, Paclitaxel]", "values": [
      {"measurement": "water diffusion changes on diffusion-weighted MRI", "setting": "malignant gliomas", "value": "clear changes"},
      {"measurement": "histology of en block-resected lesion", "setting": "[1]; rat, in vivo", "value": "Severe damage covering most of the striatum"},
      {"measurement": "tumor tissue response (T2 MRI 24 hours post treatment)", "setting": "C26 colon cancer tumors; mouse of FIGS. 16, efficient CED", "value": "complete necrosis"},
      {"measurement": "tumor tissue response (T2 MRI 24 hours post treatment)", "setting": "C26 colon cancer tumors; mouse of FIGS. 17, inefficient CED", "value": "no significant change in the tumor"}
    ]},
    {"smiles": "N.N.O=C([O-])C1(C(=O)[O-])CCC1.[Pt+2]", "note": "[Carboplatin]", "values": [
      {"measurement": "enhancement in diffusion-weighted MR images", "setting": "[1]; 24 hours post treatment, cases of efficient convection", "value": "significant enhancement"}
    ]}
  ]
}
